From patent publication US20140057895A1, “INDAZOLE- AND PYRROLOPYRIDINE-DERIVATIVE AND PHARMACEUTICAL USE THEREOF” (priority 2011, published 2014)
pEC50, pIC50: −log10 of the molar value.

Assays:
[1] = target: T1, Human 5-HT4 receptor (5-HT4b) (Homo sapiens, UniProt Q13639); test: Test Example 3: Human 5-HT4 receptor binding assay, membranes of CHO-K1 cells stably expressing 5-HT4b receptors (Table 99); conditions: mean value of each group
T1 construct: expressed in transfected cells; membrane preparation
How it was run: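 Membranes from CHO-K1 cells stably expressing 5-HT4b incubated with 0.1 nM [3H]-GR113808 in 50 mM Hepes pH 7.4, 37 °C, 30 min; nonspecific binding with 30 μM serotonin. Bound label collected by filtration and scintillation counting; IC50 from inhibition of specific binding.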

human 5-HT4b receptor = target: T2, human 5-HT4b receptor (Homo sapiens, UniProt Q13639); test: Test Example 4: Serotonin 4 (5-HT4) receptor agonist activity assay, cAMP HTRF in CHO cells (Table 100); assay type: cell-based; conditions: mean value; for Emax: CHO, 0.25 h, intrinsic activity, maximal activity of 5-HT defined as 100%, read-out: IA (%); for pEC50: concentration showing 50% of IA
T2 construct: expressed in transfected cells; host or cells: CHO cells (G418 selection)
How it was run: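 CHO cells expressing human 5-HT4b receptor, serum-reduced for 1–2 h, were suspended in Hanks/HEPES pH 7.4 and exposed to compound for 15 min at 31° C. cAMP detected by HTRF (cryptate/d2, 1 h RT, 620/665 nm). EC50 and intrinsic activity relative to maximal 5-HT response (10^−11 to 10^−7 M) set at 100%.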

T2 sequence (Q13639 whole entry): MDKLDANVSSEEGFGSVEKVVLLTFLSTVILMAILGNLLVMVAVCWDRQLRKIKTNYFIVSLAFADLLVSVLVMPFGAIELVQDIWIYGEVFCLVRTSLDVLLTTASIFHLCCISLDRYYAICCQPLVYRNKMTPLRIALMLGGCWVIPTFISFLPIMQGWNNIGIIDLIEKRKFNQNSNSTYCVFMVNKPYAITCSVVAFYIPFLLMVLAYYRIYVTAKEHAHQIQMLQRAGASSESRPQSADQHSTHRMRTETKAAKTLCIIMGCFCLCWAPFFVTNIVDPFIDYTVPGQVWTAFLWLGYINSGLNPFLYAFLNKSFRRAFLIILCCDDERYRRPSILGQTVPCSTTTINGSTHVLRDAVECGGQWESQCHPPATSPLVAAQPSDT
T1 sequence (Q13639 whole entry): as above

SMILES	pIC50 [1]	Emax (human 5-HT4b receptor)	pEC50 (human 5-HT4b receptor)
CC(C)c1nn(-c2noc(C[C@H]3CCN(CC4CN(C(=O)CO)C4)C3)n2)c2c(F)cccc12 [Example 542, 1-(3-{[(3R)-3-({3-[7-fluoro-3-(propan-2-yl)-1H-indazol-1-yl]-1,2,4-oxadiazol-5-yl}methyl)pyrrolidin-1-yl]methyl}azetidin-1-yl)-2-hydroxyethanone]	> 7.70	90%	8.48
CC(C)c1nn(-c2noc(C[C@H]3CCN(C[C@@H]4CCN(C(=O)CO)C4)C3)n2)c2c(F)cccc12 [Example 543, 1-[(3S)-3-{[(3R)-3-({3-[7-fluoro-3-(propan-2-yl)-1H-indazol-1-yl]-1,2,4-oxadiazol-5-yl}methyl)pyrrolidin-1-yl]methyl}pyrrolidin-1-yl]-2-hydroxyethanone]	> 7.70	92%	8.43
CC(C)c1nn(-c2noc(C[C@H]3CCN(C[C@H]4CCN(C(=O)CO)C4)C3)n2)c2c(F)cccc12 [Example 544, 1-[(3R)-3-{[(3R)-3-({3-[7-fluoro-3-(propan-2-yl)-1H-indazol-1-yl]-1,2,4-oxadiazol-5-yl}methyl)pyrrolidin-1-yl]methyl}pyrrolidin-1-yl]-2-hydroxyethanone]	> 7.70	58%	8.33
CC(C)c1nn(-c2noc(C[C@@H]3CCN(C4CCN(C(=O)CO)CC4)C3)n2)c2c(F)cccc12 [Example 545, 1-{4-[(3S)-3-({3-[7-fluoro-3-(propan-2-yl)-1H-indazol-1-yl]-1,2,4-oxadiazol-5-yl}methyl)pyrrolidin-1-yl]piperidin-1-yl}-2-hydroxyethanone]	> 7.70	60%	8.26
CC(C)c1nn(-c2noc(C[C@@H]3CCN(C[C@@H]4CCCN4C(=O)CO)C3)n2)c2c(F)cccc12 [Example 546, 1-[(2S)-2-{[(3S)-3-({3-[7-fluoro-3-(propan-2-yl)-1H-indazol-1-yl]-1,2,4-oxadiazol-5-yl}methyl)pyrrolidin-1-yl]methyl}pyrrolidin-1-yl]-2-hydroxyethanone]	> 7.70	63%	7.70
CC(C)c1nn(-c2noc(C[C@@H]3CCN(C[C@H]4CCCN4C(=O)CO)C3)n2)c2c(F)cccc12 [Example 547, 1-[(2R)-2-{[(3S)-3-({3-[7-fluoro-3-(propan-2-yl)-1H-indazol-1-yl]-1,2,4-oxadiazol-5-yl}methyl)pyrrolidin-1-yl]methyl}pyrrolidin-1-yl]-2-hydroxyethanone]	> 7.70	54%	7.85
CC(C)c1nn(-c2noc(C[C@@H]3CCN(CC4CN(C(=O)CO)C4)C3)n2)c2c(F)cccc12 [Example 548, 1-(3-{[(3S)-3-({3-[7-fluoro-3-(propan-2-yl)-1H-indazol-1-yl]-1,2,4-oxadiazol-5-yl}methyl)pyrrolidin-1-yl]methyl}azetidin-1-yl)-2-hydroxyethanone]	> 7.70	73%	8.19
CC(C)c1nn(-c2noc(C[C@@H]3CCN(C[C@@H]4CCN(C(=O)CO)C4)C3)n2)c2c(F)cccc12 [Example 549, 1-[(3S)-3-{[(3S)-3-({3-[7-fluoro-3-(propan-2-yl)-1H-indazol-1-yl]-1,2,4-oxadiazol-5-yl}methyl)pyrrolidin-1-yl]methyl}pyrrolidin-1-yl]-2-hydroxyethanone]	> 7.70	91%	8.25
CC(C)c1nn(-c2noc(C[C@@H]3CCN(C[C@H]4CCN(C(=O)CO)C4)C3)n2)c2c(F)cccc12 [Example 550, 1-[(3R)-3-{[(3S)-3-({3-[7-fluoro-3-(propan-2-yl)-1H-indazol-1-yl]-1,2,4-oxadiazol-5-yl}methyl)pyrrolidin-1-yl]methyl}pyrrolidin-1-yl]-2-hydroxyethanone]	> 7.70	85%	8.29
CC(=O)N1CCC(N2CCC(F)(c3nc(-n4nc(C(C)C)c5cccc(F)c54)no3)CC2)CC1 [Example 561, 1-(4-fluoro-4-{3-[7-fluoro-3-(propan-2-yl)-1H-indazol-1-yl]-1,2,4-oxadiazol-5-yl}-1,4′-bipiperidin-1′-yl)ethanone]	7.48	109%	8.05
CC(=O)NCCCN[C@H]1C[C@@H](c2nc(-n3nc(C(C)C)c4cccc(F)c43)no2)C1 [Example 566]	> 7.70	90%	8.51
CCc1nn(-c2noc(C3CCN(C[C@@H]4CCN(C(=O)CO)C4)CC3)n2)c2c(F)cccc12 [Example 582, 1-[(3S)-3-({4-[3-(3-ethyl-7-fluoro-1H-indazol-1-yl)-1,2,4-oxadiazol-5-yl]piperidin-1-yl}methyl)pyrrolidin-1-yl]-2-hydroxyethanone]	> 7.70	91%	8.43
CCc1nn(-c2noc(C3CCN(C[C@@H]4CCCN4C(=O)CO)CC3)n2)c2c(F)cccc12 [Example 583, 1-[(2S)-2-({4-[3-(3-ethyl-7-fluoro-1H-indazol-1-yl)-1,2,4-oxadiazol-5-yl]piperidin-1-yl}methyl)pyrrolidin-1-yl]-2-hydroxyethanone]	> 7.70	84%	8.23
CC(C)c1nn(-c2noc(C3CCN(C[C@@H]4CCN(S(C)(=O)=O)C4)CC3)n2)c2c(F)cccc12 [Example 585, 7-fluoro-1-[5-(1-{[(3S)-1-(methylsulfonyl)pyrrolidin-3-yl]methyl}piperidin-4-yl)-1,2,4-oxadiazol-3-yl]-3-(propan-2-yl)-1H-indazole]	> 7.70	109%	8.62
CC(C)c1nn(-c2noc(C3CCN(C[C@H]4CCN(S(C)(=O)=O)C4)CC3)n2)c2c(F)cccc12 [Example 586, 7-fluoro-1-[5-(1-{[(3R)-1-(methylsulfonyl)pyrrolidin-3-yl]methyl}piperidin-4-yl)-1,2,4-oxadiazol-3-yl]-3-(propan-2-yl)-1H-indazole]	> 7.70	105%	8.66
CC(=O)N1CCC(CN[C@H]2C[C@@H](c3nc(-n4nc(C(C)C)c5cccc(F)c54)no3)C2)CC1 [Example 590, 1-(4-{[(cis-3-{3-[7-fluoro-3-(propan-2-yl)-1H-indazol-1-yl]-1,2,4-oxadiazol-5-yl}cyclobutyl)amino]methyl]piperidin-1-yl)ethanone]	7.90	101%	8.55
CC(=O)N1CC[C@H](NC2CC(c3nc(-n4nc(C(C)C)c5cccc(F)c54)no3)C2)C1 (stereo partly drawn) [Example 591, 1-{(3S)-3-[(3-{3-[7-fluoro-3-(propan-2-yl)-1H-indazol-1-yl]-1,2,4-oxadiazol-5-yl}cyclobutyl)amino]pyrrolidin-1-yl}ethanone]	> 7.70	97%	8.59
CC(=O)N1CCC(N[C@H]2C[C@@H](c3nc(-n4nc(C(C)C)c5cccc(F)c54)no3)C2)CC1 [Example 593, 1-{4-[(cis-3-{3-[7-fluoro-3-(propan-2-yl)-1H-indazol-1-yl]-1,2,4-oxadiazol-5-yl}cyclobutyl)amino]piperidin-1-yl}ethanone]	> 7.70	99%	8.57
CC(C)c1nn(-c2noc([C@H]3C[C@@H](NCC4CCN(S(C)(=O)=O)CC4)C3)n2)c2c(F)cccc12 [Example 594, cis-3-{3-[7-fluoro-3-(propan-2-yl)-1H-indazol-1-yl]-1,2,4-oxadiazol-5-yl}-N-{[1-(methylsulfonyl)piperidin-4-yl]methyl}cyclobutanamine]	> 7.70	106%	8.64
CC(C)c1nn(-c2noc(C3CC(NC4CCOCC4)C3)n2)c2c(F)cccc12 (stereo not drawn) [Example 595, N-(3-{3-[7-fluoro-3-(propan-2-yl)-1H-indazol-1-yl]-1,2,4-oxadiazol-5-yl}cyclobutyl)tetrahydro-2H-pyran-4-amine]	> 7.70	93%	8.16
COCCNC1CC(c2nc(-n3nc(C(C)C)c4cccc(F)c43)no2)C1 (stereo not drawn) [Example 605, 3-{3-[7-fluoro-3-(propan-2-yl)-1H-indazol-1-yl]-1,2,4-oxadiazol-5-yl}-N-(2-methoxyethyl)cyclobutanamine]	> 7.70	113%	8.64
CC(C)c1nn(-c2noc(C3CC(NCC4CCOCC4)C3)n2)c2c(F)cccc12 (stereo not drawn) [Example 610, 3-{3-[7-fluoro-3-(propan-2-yl)-1H-indazol-1-yl]-1,2,4-oxadiazol-5-yl}-N-(tetrahydro-2H-pyran-4-ylmethyl)cyclobutanamine]	> 7.70	103%	8.04
CC(=O)NCCN(C1CCOCC1)C1CC(c2nc(-n3nc(C(C)C)c4cccc(F)c43)no2)C1 (stereo not drawn) [Example 611, N-{2-[(3-{3-[7-fluoro-3-(propan-2-yl)-1H-indazol-1-yl]-1,2,4-oxadiazol-5-yl}cyclobutyl)(tetrahydro-2H-pyran-4-yl)amino]ethyl}acetamide]	7.02	94%	7.37
COCCN(CC1CCCO1)C1CC(c2nc(-n3nc(C(C)C)c4cccc(F)c43)no2)C1 (stereo not drawn) [Example 612, 3-{3-[7-fluoro-3-(propan-2-yl)-1H-indazol-1-yl]-1,2,4-oxadiazol-5-yl}-N-(2-methoxyethyl)-N-(tetrahydrofuran-2-ylmethyl)cyclobutanamine]	7.69	82%	7.84
